# Tested on: isolated rat adipocytes
# Assay: Biological Activity in Isolated Rat Adipocytes (incorporation of 2-3H-glucose in total fat cell lipid)
# Type: cell-based
# Settings: 2-3H-glucose incorporation in total fat cell lipid, 37° for 1 hr, mean±SEM
# Method: Adipocytes were prepared from epididymal fat pads by a modification (Huber, supra) of the collagenase digestion procedure of Rodbell, supra. Krebs-Ringer-HEPES (KRH) buffer, pH 7.4, containing 4% bovine serum albumin and 0.55 mM glucose was used in all isolation and incubation steps.
# Biological activity was assessed according to the method of Moody, A. J., Stan, M. A., Stan, M., and Glieman, J., Horm. Metab. Res. 6, 12-16 (1974) by monitoring the incorporation of 2-^3 H-glucose in total fat cell lipid. […] Radioactivity was determined in a Searle Isocap 300 liquid scintillation counter at an efficiency of approximately 30%. Blanks were prepared in which the scintillation fluid was added to the vials prior to the addition of cells. The average counts obtained from these vials were subtracted from those observed in all other samples.
# Competitive binding curves and biological activity dose-response curves were analyzed using the PREFIT and ALLFIT programs [DeLean, A., Munson, P. J., and Rodbard, D., Am. J. Physiol. 235, E97-E102 (1978)] based on a four-parameter logistic model. These analyses indicated the concentration of insulin or proinsulin necessary to produce a half-maximal response, as well as the maximal and minimal values. All values are presented as the mean±SEM.
row,Substance,ED50
1,"Human Insulin: human insulin, reference in the binding and activity assays",5.32 ± 0.7 × 10^-11 M
2,"Human Proinsulin: human proinsulin, starting material and reference; relative potency set to 1",1.24 ± 0.2 × 10^-8 M

# From US4581165A, “Anti-diabetic compounds” (Eli Lilly and Company, priority 1984, dated 1986)
